Reference: BigSolDB 2.1

Nc1cccc2c1C(=O)N(C1CCC(=O)NC1=O)C2=O (stereo unspecified)
solubility (mole fraction) (in acetone, 278.15 K): 1.43e-06 | solubility (mole fraction) (in acetone, 283.15 K): 2e-06 | solubility (mole fraction) (in acetone, 288.15 K): 2.59e-06 | solubility (mole fraction) (in acetone, 293.15 K): 3.32e-06 | solubility (mole fraction) (in acetone, 298.15 K): 4.27e-06 | solubility (mole fraction) (in acetone, 303.15 K): 5.32e-06 | solubility (mole fraction) (in acetone, 308.15 K): 6.53e-06 | solubility (mole fraction) (in acetone, 313.15 K): 7.84e-06 | solubility (mole fraction) (in acetone, 318.15 K): 9.49e-06 | solubility (mole fraction) (in ethanol, 278.15 K): 1.8e-07 | solubility (mole fraction) (in ethanol, 283.15 K): 2.4e-07 | solubility (mole fraction) (in ethanol, 288.15 K): 3.1e-07 | solubility (mole fraction) (in ethanol, 293.15 K): 4.1e-07 | solubility (mole fraction) (in ethanol, 298.15 K): 5.3e-07 | solubility (mole fraction) (in ethanol, 303.15 K): 6.8e-07 | solubility (mole fraction) (in ethanol, 308.15 K): 8.5e-07 | solubility (mole fraction) (in ethanol, 313.15 K): 1.04e-06 | solubility (mole fraction) (in ethanol, 318.15 K): 1.26e-06 | solubility (mole fraction) (in ethyl acetate, 278.15 K): 4.5e-07 | solubility (mole fraction) (in ethyl acetate, 283.15 K): 6.6e-07 | solubility (mole fraction) (in ethyl acetate, 288.15 K): 9.3e-07 | solubility (mole fraction) (in ethyl acetate, 293.15 K): 1.21e-06 | solubility (mole fraction) (in ethyl acetate, 298.15 K): 1.55e-06 | solubility (mole fraction) (in ethyl acetate, 303.15 K): 1.95e-06 | solubility (mole fraction) (in ethyl acetate, 308.15 K): 2.38e-06 | solubility (mole fraction) (in ethyl acetate, 313.15 K): 2.96e-06 | solubility (mole fraction) (in ethyl acetate, 318.15 K): 3.62e-06 | solubility (mole fraction) (in isopropanol, 278.15 K): 2.3e-07 | solubility (mole fraction) (in isopropanol, 283.15 K): 3.4e-07 | solubility (mole fraction) (in isopropanol, 288.15 K): 4.8e-07 | solubility (mole fraction) (in isopropanol, 293.15 K): 6.3e-07 | solubility (mole fraction) (in isopropanol, 298.15 K): 8.1e-07 | solubility (mole fraction) (in isopropanol, 303.15 K): 1.02e-06 | solubility (mole fraction) (in isopropanol, 308.15 K): 1.26e-06 | solubility (mole fraction) (in isopropanol, 313.15 K): 1.56e-06 | solubility (mole fraction) (in isopropanol, 318.15 K): 1.9e-06
